Measurements reported in ChEMBL document CHEMBL2086247, “Protein-ligand crystal structures can guide the design of selective inhibitors of the FGFR tyrosine kinase” (J Med Chem, 2012).

What was measured:
[1] = target: T1, Insulin-like growth factor 1 receptor (Homo sapiens, UniProt P08069); test: Inhibition of human IGF1R phosphorylation expressed in IGF-1-stimulated knockout mouse R+ cells treated 30 mins before IGF-1 stimulation measured after 20 mins by immunofluorescence
[2] = target: T2, Vascular endothelial growth factor receptor 2 (Homo sapiens, UniProt P35968); test: Inhibition of human KDR phosphorylation expressed in VEGF-stimulated HUVEC treated 90 mins before VEGF stimulation measured after 5 mins by ELISA; type: cell-based
[3] = target: T2, Vascular endothelial growth factor receptor 2; test: Inhibition of recombinant N terminal GST-tagged human KDR (805 to 1356) expressed in baculovirus infected Sf9 cells after 90 mins by caliper mobility shift assay
[4] = target: T3, Fibroblast growth factor receptor 1 (Homo sapiens, UniProt P11362)
Description: Inhibition of human FGFR1 phosphorylation expressed in COS1 cells after 1 hr by immunoblotting

[5] = target: T1, Insulin-like growth factor 1 receptor; test: Inhibition of recombinant N terminal His6-tagged human IGF1R (959 to end) expressed in baculovirus infected Sf21 cells after 80 mins by caliper mobility shift assay
[6] = target: T3, Fibroblast growth factor receptor 1; test: biochemical
Description: Inhibition of recombinant N terminal GST-tagged human FGFR1 (456 to 765) expressed in baculovirus infected Sf21 cells after 40 mins by caliper mobility shift assay

[7] = target: Dual specificity mitogen-activated protein kinase kinase 1 (Homo sapiens, UniProt Q02750); test: Inhibition of MEK1 fused with GST by autoradiography
Chain of Dual specificity mitogen-activated protein kinase kinase 1 (Q02750 whole entry, the tested form may be a part): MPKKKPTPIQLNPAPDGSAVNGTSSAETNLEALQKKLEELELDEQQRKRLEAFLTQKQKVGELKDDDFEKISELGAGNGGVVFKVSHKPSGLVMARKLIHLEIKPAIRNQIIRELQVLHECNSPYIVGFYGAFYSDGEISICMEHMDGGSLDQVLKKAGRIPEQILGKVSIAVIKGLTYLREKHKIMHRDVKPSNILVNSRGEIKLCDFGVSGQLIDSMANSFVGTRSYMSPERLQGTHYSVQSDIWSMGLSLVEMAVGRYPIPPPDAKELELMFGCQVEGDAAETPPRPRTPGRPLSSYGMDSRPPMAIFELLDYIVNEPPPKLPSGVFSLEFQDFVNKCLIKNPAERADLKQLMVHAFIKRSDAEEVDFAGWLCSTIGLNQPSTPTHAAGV

T2 sequence (P35968 whole entry): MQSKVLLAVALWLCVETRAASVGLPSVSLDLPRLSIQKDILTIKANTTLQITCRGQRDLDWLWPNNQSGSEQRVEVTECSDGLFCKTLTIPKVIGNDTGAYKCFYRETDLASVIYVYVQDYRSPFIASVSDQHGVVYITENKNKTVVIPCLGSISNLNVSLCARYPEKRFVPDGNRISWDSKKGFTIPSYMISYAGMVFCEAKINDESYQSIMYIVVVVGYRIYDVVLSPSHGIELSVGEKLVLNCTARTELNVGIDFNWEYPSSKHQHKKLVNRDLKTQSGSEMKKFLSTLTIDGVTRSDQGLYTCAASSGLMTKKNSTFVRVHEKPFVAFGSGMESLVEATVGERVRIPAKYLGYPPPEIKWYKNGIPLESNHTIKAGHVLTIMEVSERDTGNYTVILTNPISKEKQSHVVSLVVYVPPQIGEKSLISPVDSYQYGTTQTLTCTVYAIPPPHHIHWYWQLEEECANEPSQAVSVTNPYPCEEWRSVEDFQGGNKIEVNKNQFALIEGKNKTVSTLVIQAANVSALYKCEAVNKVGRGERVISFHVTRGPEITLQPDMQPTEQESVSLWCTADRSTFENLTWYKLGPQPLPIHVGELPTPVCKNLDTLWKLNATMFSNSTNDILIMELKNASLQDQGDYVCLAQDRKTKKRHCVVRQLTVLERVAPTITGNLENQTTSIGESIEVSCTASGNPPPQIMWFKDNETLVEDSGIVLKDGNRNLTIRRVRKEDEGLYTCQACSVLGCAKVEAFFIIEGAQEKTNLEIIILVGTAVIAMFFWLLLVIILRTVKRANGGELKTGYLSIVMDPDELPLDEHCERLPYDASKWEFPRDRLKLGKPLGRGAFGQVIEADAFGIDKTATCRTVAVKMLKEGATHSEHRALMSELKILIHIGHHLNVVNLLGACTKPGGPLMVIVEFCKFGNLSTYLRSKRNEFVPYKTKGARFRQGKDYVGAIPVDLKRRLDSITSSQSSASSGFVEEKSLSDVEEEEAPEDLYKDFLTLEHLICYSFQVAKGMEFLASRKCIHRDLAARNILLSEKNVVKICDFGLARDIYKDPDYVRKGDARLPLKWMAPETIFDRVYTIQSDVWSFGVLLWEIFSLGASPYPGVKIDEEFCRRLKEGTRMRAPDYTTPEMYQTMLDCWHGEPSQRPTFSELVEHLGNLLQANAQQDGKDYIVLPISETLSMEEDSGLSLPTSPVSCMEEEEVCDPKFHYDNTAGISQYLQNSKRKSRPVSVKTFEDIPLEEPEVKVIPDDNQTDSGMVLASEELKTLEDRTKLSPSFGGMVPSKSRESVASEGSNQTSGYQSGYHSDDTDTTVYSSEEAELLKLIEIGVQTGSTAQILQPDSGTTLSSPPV
T3 sequence (P11362 whole entry): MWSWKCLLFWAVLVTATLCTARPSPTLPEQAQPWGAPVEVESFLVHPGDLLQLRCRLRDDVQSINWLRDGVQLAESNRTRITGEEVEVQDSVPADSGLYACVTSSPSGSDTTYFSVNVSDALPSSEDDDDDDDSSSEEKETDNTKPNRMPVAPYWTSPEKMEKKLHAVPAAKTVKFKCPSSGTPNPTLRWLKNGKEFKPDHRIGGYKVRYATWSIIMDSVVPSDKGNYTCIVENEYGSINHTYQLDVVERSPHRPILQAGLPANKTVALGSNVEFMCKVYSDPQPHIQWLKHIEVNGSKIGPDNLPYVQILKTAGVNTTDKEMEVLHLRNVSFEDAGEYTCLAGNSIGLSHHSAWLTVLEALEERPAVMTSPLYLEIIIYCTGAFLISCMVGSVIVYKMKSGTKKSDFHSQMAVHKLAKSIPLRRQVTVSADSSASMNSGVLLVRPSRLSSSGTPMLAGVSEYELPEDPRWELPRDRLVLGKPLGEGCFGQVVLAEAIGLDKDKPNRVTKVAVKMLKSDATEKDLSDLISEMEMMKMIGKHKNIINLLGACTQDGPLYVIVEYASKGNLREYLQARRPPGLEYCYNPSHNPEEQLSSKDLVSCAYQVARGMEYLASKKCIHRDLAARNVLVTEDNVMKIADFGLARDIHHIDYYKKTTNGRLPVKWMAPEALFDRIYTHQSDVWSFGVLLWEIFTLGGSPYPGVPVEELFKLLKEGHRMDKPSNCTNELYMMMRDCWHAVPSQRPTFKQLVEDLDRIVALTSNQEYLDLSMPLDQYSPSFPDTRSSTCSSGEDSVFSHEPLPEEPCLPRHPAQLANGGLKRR

Row | Compound | IC50 [1] | IC50 [2] | IC50 [3] | IC50 [4] | IC50 [5] | IC50 [6] | IC50 [7]
1 | Cc1cc(Nc2nc(NCCc3cccnc3)ncc2Br)[nH]n1 | 3980 nM | > 10000 nM | 631 nM | 2510 nM | 6310 nM | 501 nM | –
2 | C=CCNc1ncc(Br)c(Nc2cc(C)[nH]n2)n1 | 6310 nM | 794 nM | 1000 nM | – | 3980 nM | – | –
3 | Cc1cc(Nc2nc(NCc3cc(C)no3)ncc2Br)[nH]n1 | 6310 nM | 6310 nM | 631 nM | 158 nM | 7940 nM | 63.1 nM | –
4 | Cc1cc(Nc2nc(NCc3cc(C(C)(C)C)no3)ncc2Br)[nH]n1 | 3160 nM | > 10000 nM | 3980 nM | 158 nM | 10000 nM | 31.6 nM | –
5 | COCCCc1cc(Nc2nc(NCc3cc(C)no3)ncc2Br)[nH]n1 | > 20000 nM | > 10000 nM | 1260 nM | 794 nM | 20000 nM | 63.1 nM | –
6 | CCCc1cc(Nc2nc(NCc3cc(C)no3)ncc2Br)n[nH]1 | 501 nM | 6310 nM | 158 nM | 100 nM | 398 nM | 10 nM | –
7 | Cc1cc(CNc2ncc(Br)c(Nc3cc(CCc4ccccc4)[nH]n3)n2)on1 | 10000 nM | 1580 nM | 25.1 nM | 63.1 nM | 6310 nM | 2.51 nM | –
8 | COc1cc(CCc2cc(Nc3ccnc(NCc4cc(C)no4)n3)n[nH]2)cc(OC)c1 | 5010 nM | 1580 nM | 79.4 nM | < 15.8 nM | 6310 nM | 2 nM | –
9 | Cc1cc(CNc2ncc(Cl)c(Nc3cc(C)[nH]n3)n2)on1 | – | – | 501 nM | – | 7940 nM | – | –
10 | Cc1cc(CNc2nccc(Nc3cc(C)[nH]n3)n2)on1 | – | – | 1000 nM | – | 12600 nM | – | –
11 | COCCCc1cc(Nc2ccnc(NCc3cc(C)no3)n2)n[nH]1 | – | – | 2510 nM | – | – | – | –
12 | Cc1cc(CNc2nccc(Nc3cc(CCc4ccccc4)[nH]n3)n2)on1 | – | – | 126 nM | – | – | – | –
13 | Cc1cc(Nc2nc(NCc3ccccn3)ncc2Br)n[nH]1 | – | – | 1580 nM | – | 12600 nM | 200 nM | –
14 | Cc1cc(Nc2nc(NCCCc3c[nH]nc3C)ncc2Br)n[nH]1 | – | – | 501 nM | – | 6310 nM | 126 nM | –
15 | Cc1cc(Nc2nc(NCCc3ccco3)ncc2Br)n[nH]1 | – | – | 200 nM | – | 3980 nM | 200 nM | –
16 | Cc1cnc(CNc2ncc(Br)c(Nc3cc(C)[nH]n3)n2)cn1 | – | – | 1000 nM | – | 12600 nM | 100 nM | –

Row | Compound | IC50 [1] | IC50 [2] | IC50 [3] | IC50 [4] | IC50 [5] | IC50 [6] | IC50 [7]
17 | Cc1cc(CCNc2ncc(Br)c(Nc3cc(C)[nH]n3)n2)on1 | – | – | 501 nM | – | 15800 nM | 398 nM | –
18 | Cc1cc(Nc2nc(NCc3ncccc3C)ncc2Br)n[nH]1 | – | – | 501 nM | – | 50100 nM | – | –
19 | Cc1cc(Nc2nc(NCc3cc(C(=O)N4CCCC4)no3)ncc2Br)n[nH]1 | – | – | 15800 nM | – | 10000 nM | – | –
20 | Cc1cc(Nc2ccnc(NCc3cc(C4CC4)no3)n2)n[nH]1 | – | – | 794 nM | – | 10000 nM | 25.1 nM | –
21 | Cc1cc(Nc2ccnc(NCc3cc(C(N)=O)no3)n2)[nH]n1 | – | – | 1260 nM | – | 7940 nM | 100 nM | –
22 | Cc1cc(CNc2nccc(Nc3cc(CO)[nH]n3)n2)on1 | – | – | 20000 nM | – | 39800 nM | – | –
23 | CCc1cc(Nc2nc(NCc3ccccn3)ncc2Br)n[nH]1 | – | – | 501 nM | – | 3160 nM | 39.8 nM | –
24 | CCc1cc(Nc2nc(NCc3cc(-c4ccccn4)no3)ncc2Br)n[nH]1 | – | – | 3160 nM | – | 100 nM | – | –
25 | CCCc1cc(Nc2nc(NCc3cccnc3)ncc2Br)n[nH]1 | – | – | 126 nM | – | 1580 nM | – | –
26 | CC(C)c1cc(Nc2nc(NCc3cccnc3)ncc2Br)n[nH]1 | – | – | 398 nM | – | 398 nM | – | –
27 | COCCCc1cc(Nc2ccnc(NCc3cc(C4CC4)no3)n2)n[nH]1 | – | – | 1580 nM | – | 12600 nM | – | –
28 | COCCCc1cc(Nc2ccnc(NCc3cc(C(N)=O)no3)n2)[nH]n1 | – | – | 1260 nM | – | 100000 nM | – | –
29 | COc1cc(CCc2cc(Nc3ccnc(NCc4ccccn4)n3)[nH]n2)cc(OC)c1 | – | – | 398 nM | – | 79400 nM | 5.01 nM | –
30 | COc1cc(CCc2cc(Nc3ccnc(NCc4cc(C)on4)n3)n[nH]2)cc(OC)c1 | – | – | 126 nM | – | 12600 nM | 2 nM | –
31 | CCN(CC)CCCCNc1ncc2cc(-c3cc(OC)cc(OC)c3)c(NC(=O)NC(C)(C)C)nc2n1 [PD-173074] | – | – | – | – | – | – | > 50000 nM
